Measurements from US7094581B2, “Hyaluronan synthases and methods of making and using same” (The Board of Regents of the University of Oklahoma, priority 1998, dated 2006).
Values joined by “and” are separate entries in the source; they are usually repeats but may differ in a detail not shown here. Identical values can stand only once.

Key:
spHAS = biological target: T1, spHAS (Streptococcus pyogenes serotype M6, UniProt Q5X9A9); test: Effect of sulfhydryl reagents on spHAS activity in E. coli membranes; assay type: biochemical; conditions: E. coli membranes with spHAS-H6, 4° C. 1 h, 5 mM NEM, 5 mM IAA, 0.5 mM 5,5′-dithiobis-(2-nitrobenzoic acid), 0.05 mM methylmethanethiosulfonate, 10 mM sodium arsenite
T1 construct: made in house; host or cells: E. coli SURE cells (isolated membranes)
T1 sequence (Q5X9A9 1-419): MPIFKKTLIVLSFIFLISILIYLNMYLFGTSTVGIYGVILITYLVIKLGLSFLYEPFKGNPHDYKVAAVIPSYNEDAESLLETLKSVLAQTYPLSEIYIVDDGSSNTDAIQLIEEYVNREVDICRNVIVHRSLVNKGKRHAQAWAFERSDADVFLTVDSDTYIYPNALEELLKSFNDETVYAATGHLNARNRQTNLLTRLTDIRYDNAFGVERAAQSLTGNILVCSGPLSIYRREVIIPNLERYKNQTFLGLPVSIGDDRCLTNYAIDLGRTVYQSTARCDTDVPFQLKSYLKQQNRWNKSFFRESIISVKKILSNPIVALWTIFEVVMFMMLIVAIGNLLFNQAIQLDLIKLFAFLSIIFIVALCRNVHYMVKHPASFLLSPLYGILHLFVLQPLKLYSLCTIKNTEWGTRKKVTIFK
Method: (§1) SeHAS is the smallest HAS protein (417 amino acids) and contains four Cys residues. […] To explore the possible role of cysteines in the function of HAS, the activities of seHAS and spHAS were assayed in the presence of different sulfhydryl reagents (Table II). […] The inhibition of each HAS by NEM was examined in more detail with respect to time of incubation and NEM concentration (FIG. 2).
(§2) E. coli SURE cells transformed with plasmids containing various seHAS mutants were grown in LB medium with vigorous shaking at 32° C. to A600 ˜0.8 and induced with 1 mM isopropyl-β-thiogalactoside for 3 h. Cells were harvested and membranes were prepared as described previously. The kinetic constants for HAS were determined at 37° C. in 100 μl of 50 mM sodium and potassium phosphate, pH 7.0, with 20 mM MgCl2, 1 mM DTE, 240 μM UDP-GIcUA, 0.7 μM UDP-[^14C]GIcUA and 0.6–1.0 mM UDP-GIcNAc. in 100 μl of 25 mM sodium and potassium phosphate, pH 7, containing 50 mM NaCl, 20 mM MgCl2, 1 mM dithiothreitol, 1 mM UDP-GIcUA, 0.68 μM UDP-GIcUA and 1 mM UDP-GIcNAc. Some assays also contained 0.1 mM EDTA and 20% glycerol (v/v). To initiate the enzyme reaction, ˜0.5–40 μg of membrane protein was added and the mixtures were gently shaken in a MicroMixer X-36 (Tiatec) at 30° C. for 1–2 h. Reactions were terminated by the addition of SDS to a final concentration of 2% (w/v). The incorporation of radioactive [^14C]GIcUA was determined by descending paper chromatography and the Km and Vmax values were determined as described by Tlapak-Simmons et al (1999b). Data were analyzed by the methods of Michaelis-Menton or Hill. Protein content was determined by the method of Bradford using bovine serum albumin as the standard. All Cys-mutant or sulfhydryl-treated seHAS samples were assayed in duplicate or triplicate using two or three independent membrane preparations. […] All enzyme assays were performed under conditions that were linear with respect to time and protein concentration.
(§3) Stock solutions (10–100 mM) of NEM, IAA or other sulfhydryl reagents were made in PBS, pH 7.0. Suspensions of membranes containing seHAS or spHAS were incubated with 0–5 mM of the sulfhydryl reagent at 4° C. and the reactions were stopped by adding DTE to a final concentration of 10 mM. The membranes were then assayed for HAS activity as described above.

[1] = system: triple Cys-mutants of seHAS; test: NEM inactivation of triple Cys-mutants of seHAS and protection by substrates; assay type: biochemical, Streptococcus equisimilis; conditions: 5 mM NEM, 4° C., 10 min
Method: FIG. 6. Substrates protect triple Cys-mutants of seHAS from inactivation by NEM. E. coli membranes containing the indicated triple Cys-mutant of seHAS (each with a single remaining Cys residue) were treated at 4° C. for 10 min with no additions (control; 100% values) or with 5 mM NEM alone and in the presence of either UDP, UDP-GIcUA or UDP-GIcNAc. Unreacted Nem was then quenched and HAS activity was determined. Results are not shown for the mutant containing only Cys^367, since NEM inactivation of this mutant is ˜10% and all values were essentially identical.
Although the 4 Cys residues in seHAS (positions 226, 262, 281 and 367) are roughly conserved in all Class I HAS family members, the Cys-null mutants of seHAs and spHAS are active, with minimal changes in their kinetics compared to wild type. It is also shown here that neither HAS contains disulfide bonds. To understand why these four cysteines are, nevertheless, largely conserved within the Class I HASs, NEM sensitivity was examined (i.e., the time- and dose-dependent inhibition) of all possible Cys-to-Ala mutants of seHAS. […] Cys281 appears not to be within a UDP-sugar binding site, since the triple Cys-mutant seHAS (A3C)C281 was not protected from NEM inhibition by UDP, UDP-GIcUA or UDP-GIcNAc (FIG. 6).
Stock solutions (10–100 mM) of NEM, IAA or other sulfhydryl reagents were made in PBS, pH 7.0. […]

seHAS = test: Effect of sulfhydryl reagents on seHAS activity in E. coli membranes; assay type: biochemical, Streptococcus equisimilis; conditions: E. coli membranes with seHAS-H6, 4° C. 1 h, 5 mM NEM, 5 mM IAA, 0.5 mM 5,5′-dithiobis-(2-nitrobenzoic acid), 0.05 mM methylmethanethiosulfonate, 10 mM sodium arsenite
Method: as §1, §2, §3

SMILES: CCN1C(=O)C=CC1=O [N-ethylmaleimide]
- Inhibition of HAS Activity (% relative to control), spHAS (spHAS): 60 ± 3.5%
- Inhibition of HAS Activity (% relative to control), spHAS (spHAS; listed as NEM): 60–70%
- NEM inactivation of the seHAS mutant containing only Cys^367 [1]: ~10%
- Inhibition of HAS Activity (% relative to control), seHAS (seHAS): 70 ± 4.8%
- Inhibition of HAS Activity (% relative to control), seHAS (seHAS; listed as NEM): ~70% and 60–70%
